{"source": "patent US9464326B2", "about": "“Total and phosphorylated IL-1 receptor-associated kinase-1 and IL-1 receptor-associated kinase-4 as a biomarker for cancer progression and chemotherapy resistance” (University of Maryland, Baltimore, priority 2012, dated 2016)", "key": {"A375 melanoma cells [1]": {"test_system": "A375 melanoma cells", "test": "Western blot of cleaved PARP and caspase-3", "assay_type": "cell-based, human", "settings": "single agent alone, 48 hrs, FIG. 8D", "description": "FIG. 8. […] (A) A375 and Malme-3M melanoma cells were cultured with or without 2.5 μM of IRAK-1,-4 and in the presence varying concentrations of vinblastine, cisplatin or 5′ Fluorouracil. Forty-eight hours later apoptosis was evaluated by staining cells with annexin-V and propidium iodide and analyzed by flow cytometry. (B) A375 cells were transfected via electroporation with siRNA-IRAK-1,-4. IRAK-1 protein levels were examined by Western blotting. […], A375-psiRNA-hIRAK-1, A375-psiRNA-hIRAK-4, or cells expressing both psiRNA-hIRAK-1 and -4 were cultured in the presence of vinblastine (100 nmol/L) for 48 hours and apoptosis was examined by flow cytometry. (C) A375 melanoma cells were cultured in the presence of vehicle alone (DMSO) or various concentrations of IRAK-1,-4. Forty-eight hours later cell lysates were used to analyze the expression of levels of cleaved PARP or caspase-3 by Western blots. (D) A375 melanoma cells were cultured with or without 2.5 μM of IRAK.-1,-4 and in the presence or absence of vinblastine for 48 hrs. PARP and caspase-3 levels were determined by Western blot.\nTotal cell extracts were prepared from melanoma cells. […] Melanoma tissue arrays were purchased from US Biomax, Inc (Rockville, Md.). For immunohistochemical staining samples were stained with mouse monoclonal anti-human phosphor-IRAK.-4 antibody (Abnova; dilution, 3.5 μg/ml) or normal mouse serum. Tissue histology sections (5-μm-thick) were deparaffinized, hydrated, heated in boiling 10 mmol/L sodium citrate (pH 6.0), for antigen retrieval, for 30 min and washed in Tris buffer. Peroxide blocking was done with 3% […] in methanol at room temperature for 15 min, followed by 10% fetal bovine serum in TBS-t for 30 min at room temperature. Primary antibody incubation was done overnight at 4° C. Secondary antibody incubation with horse anti-mouse (1:200; Vector Laboratories, Burlingame, Calif.) was done for 1 hr, followed by application of diaminobenzidine chromogen for 5 min. The slides were then counterstained with hematoxylin and topped with a coverslip. IHC specimens were analyzed using “quick score” system in which the intensity of the immunohistochemical reaction was scored by multiplying the intensity 1 (weak), 2 (moderate), and 3 (strong) and the proportion of cells staining positively 0 (<10%), 1 (10-25%), 2 (26-50%), 3 (51-75%) or 4 (>75%)."}, "A375 melanoma cells [2]": {"test_system": "A375 melanoma cells", "test": "A375 melanoma xenograft model", "settings": "IRAK-1,-4 inhibitor 35 mg/kg intratumorally, vinblastine 0.25 mg/kg i.p.; control 17 days", "procedure": "(A-B) NSG mice (n=5) were injected subcutaneously with A375 melanoma cells. When tumors reached a size of approximately 50 mm^2 mice remained untreated or injected intraperitoneally with vinblastine mg/kg; administered every 2 days for 10 days), or peritumorally with IRAK-1,-4 inhibitor (35 mg/kg), or vinblastine plus IRAK.-1,-4 inhibitor. Tumor sizes were calculated by measuring perpendicular by longitudinal diameter;*, P<0.05. Mouse survival data were analyzed using the exact log-rank test;*, P<0.05, **P<0.001.\nNOD.Cg-Prkdc^scid Il2rg^tmWJZ; SzJ IL2RG (NSG) mice (Jackson Laboratories, Bar Harbor, Me.) were subcutaneously (s.c.) injected with 2.5×10^6 A375 melanoma cells delivered in PBS. […] When tumors reached a size of approximately 50 mm^2 mice were injected intratumorally (i.t.) with 35 mg/kg of IRAK-1,-4 inhibitor or an equal volume of vehicle (DMSO). Mice were intraperitoneally (i.p.) injected with vinblastine (0.25 mg/kg) every 2 days for 5 days starting on the same day that mice received with IRAK-1,-4 inhibitor. Tumor sizes were analyzed using a mixed model approach for repeated measurements and mouse survival data were analyzed with the exact log-rank test."}}, "data": [{"smiles": "CC[C@]1(O)C[C@@H]2CN(CCc3c([nH]c4ccccc34)[C@@](C(=O)OC)(c3cc4c(cc3OC)N(C)[C@H]3[C@@](O)(C(=O)OC)[C@H](OC(C)=O)[C@]5(CC)C=CCN6CC[C@]43[C@@H]65)C2)C1", "note": "[vinblastine]", "values": [{"measurement": "levels of cleaved PARP and caspase-3", "setting": "A375 melanoma cells [1]", "result": "little effect"}, {"measurement": "median survival", "setting": "A375 melanoma cells [2]", "result": 22, "unit": "days"}]}]}
